These results are taken from patent publication US20220267356A1, “ARGINASE INHIBITORS AND METHODS OF USE THEREOF” (AstraZeneca AB, priority 2019, published 2022).

One test concerns the target T1, Human Arginase 2 (Homo sapiens, UniProt P78540).
T1 construct: made in house; host or cells: E. coli
T1 sequence (P78540 23-354): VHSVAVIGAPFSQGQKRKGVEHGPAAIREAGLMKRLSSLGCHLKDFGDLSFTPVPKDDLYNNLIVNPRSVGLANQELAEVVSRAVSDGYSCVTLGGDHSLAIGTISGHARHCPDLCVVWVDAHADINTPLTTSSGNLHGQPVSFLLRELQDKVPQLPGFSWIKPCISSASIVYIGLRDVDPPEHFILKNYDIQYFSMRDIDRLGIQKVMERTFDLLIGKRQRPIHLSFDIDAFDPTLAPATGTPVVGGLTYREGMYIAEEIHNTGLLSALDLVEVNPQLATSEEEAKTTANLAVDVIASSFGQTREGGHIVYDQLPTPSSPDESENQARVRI
Put plainly: Human Arginase 2 enzyme inhibition (thioarginine/DTNB absorbance at 412 nm). To be noted: recombinant enzyme 5 nM, 60 min, room temperature. The class given is biochemical. The text has this:
(§1) The inhibitory effects of Examples 1-26 on the activity of Human Arginase 1 and Arginase 2 activity were quantified by measuring the formation of the thiol group from thioarginine using recombinant Arginase 1 or Arginase 2 produced from E. coli. The thiol group was detected with Ellman's reagent, 5,5′-dithiobis(2-nitrobenzoic acid) (DTNB). DTNB reacts with the thiol to give the mixed disulfide and 2-nitro-5-thiobenzoic acid (TNB) which is quantified by the absorbance of the anion (TNB^2−) at 412 nm.
(§2) The assays were run in clear 384 well plates (Greiner cat no: 781101). Various concentrations of Examples 1-26 in 300 nL DMSO were dispensed to assay plates using an Echo acoustic dispenser immediately followed by plate sealing and centrifugation. Two pre-mixes were prepared from reagents thawed immediately before addition to assay plates. Pre-mix one comprised human Arginase 1 or human Arginase 2, at a final concentration of 5 nM and 0.5 mM DTNB in assay buffer, 45 mM HEPES pH7.5, brij 35, 0.045% (w/v) and 100 μM MnCl2. Pre-mix two comprised freshly thawed 0.5 mM thioarginine in assay buffer. Fifteen microlitres of pre-mix one was dispensed to assay plates containing Examples 1-9, centrifuged and incubated for 30 minutes at room temperature prior to adding fifteen microlitres of pre-mix two.
(§3) Assay plates were centrifuged prior to reading absorbance at 412 nm in a Pherastar multi-mode plate reader to collect data at time point 0 (T0). The plates were incubated at room temperature for 60 min prior to reading again to collect data at time point 1 (T1). Data is derived by subtracting the A412 signal measured at T0 (time point 0) from that measured at T1 (time point 1). The data was transformed to % effect using the equation:
(§4) Compound % effect=100*[(X−min)/(max−min)],
(§5) where X represents the normalized value for the compound based on the Min (vehicle) and Max (reference compound) inhibition control.
(§6) The concentration of Examples 1-26 that inhibited the activity by 50% (i.e.the IC50) was calculated by plotting the % effect versus test compound concentration and fitting the data using the Genedata Screener Smart fit algorithm.

The target in another test is T2, Human Arginase 1 (Homo sapiens, UniProt P05089).
T2 construct: made in house; host or cells: E. coli
T2 sequence (P05089 1-322): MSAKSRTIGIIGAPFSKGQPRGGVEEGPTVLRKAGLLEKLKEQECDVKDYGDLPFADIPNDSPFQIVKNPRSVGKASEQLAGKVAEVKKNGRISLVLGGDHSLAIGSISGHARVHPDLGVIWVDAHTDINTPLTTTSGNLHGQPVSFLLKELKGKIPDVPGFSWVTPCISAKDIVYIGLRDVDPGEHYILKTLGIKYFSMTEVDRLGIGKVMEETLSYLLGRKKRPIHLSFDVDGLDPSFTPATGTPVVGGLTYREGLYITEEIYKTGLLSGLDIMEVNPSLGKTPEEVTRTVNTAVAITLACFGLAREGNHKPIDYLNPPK
Put plainly: Human Arginase 1 enzyme inhibition (thioarginine/DTNB absorbance at 412 nm). To be noted: recombinant enzyme 5 nM, 60 min, room temperature. Type of test: biochemical.
Text: as §1, §2, §3, §4, §5, §6

As usually defined, the IC50 is the concentration that inhibits the measured activity by half. On to `N[C@H](C(=O)O)[C@H](CCCB(O)O)CN1CCOCC1` [Example 2, (2S,3R)-2-amino-6-borono-3-(morpholinomethyl)hexanoic acid], for which the concentration for half-maximal inhibition (IC50) on Human Arginase 2 came out at 85200 nM; on Human Arginase 1, 38600 nM.
The corresponding values for `CN(C)C[C@@H](CCCB(O)O)[C@H](N)C(=O)O` [Example 5, (2S,3R)-2-amino-6-borono-3-((dimethylamino)methyl)hexanoic acid] are 4310 nM and 2090 nM.
With `CC(C)[C@H](N)C(=O)NC[C@@H](CCCB(O)O)[C@H](N)C(=O)O` [Example 8, (2S,3R)-2-amino-3-(((S)-2-amino-3-methylbutanamido)methyl)-6-boronohexanoic acid], the IC50 was 490 nM at Human Arginase 2 and 150 nM at Human Arginase 1.
The corresponding values for `CN[C@H](C(=O)O)[C@@H](CN)CCCB(O)O` [Example 12, (2S,3R)-3-(aminomethyl)-6-borono-2-(methylamino)hexanoic acid] are 1080 nM and 400 nM.
With `CC(C)[C@H](N)C(=O)N[C@H](C(=O)O)[C@@H](CN)CCCB(O)O` [Example 13, (2S,3R)-2-((S)-2-Amino-3-methylbutanamido)-3-(aminomethyl)-6-boronohexanoic acid], the IC50 stood at 9460 nM at Human Arginase 2 and 13200 nM at Human Arginase 1.
The corresponding values for `C[C@H](N)C(=O)NC[C@@H](CCCB(O)O)[C@H](N)C(=O)O` [Example 10, (2S,3R)-2-amino-3-(((S)-2-aminopropanamido)methyl)-6-boronohexanoic acid] are 360 nM and 160 nM.
Taken in the same sequence, the figures for `CNC(=O)[C@@H](CCCB(O)O)[C@H](N)C(=O)O` [Example 17, (2S,3S)-2-amino-6-borono-3-(methylcarbamoyl)hexanoic acid] were over 100000 nM and 34200 nM.
Taken in the same sequence, the figures for `CC(C)(C)[C@H](N)C(=O)NC[C@H](CCCB(O)O)[C@H](N)C(=O)O` [Example 23, (2S,3S)-2-amino-3-(((S)-2-amino-3,3-dimethylbutanamido)methyl)-6-boronohexanoic acid] were 100 nM and 30 nM.
`NCC[C@@H](CCCB(O)O)[C@H](N)C(=O)O` [Example 15, (2S,3R)-2-amino-3-(2-aminoethyl)-6-boronohexanoic acid]: the IC50 on Human Arginase 2 is 480 nM; at Human Arginase 1 it was 220 nM.
Taken in the same sequence, the figures for `N[C@H](C(=O)O)[C@H](CCCB(O)O)CN1CCCCC1` [Example 3, (2S,3R)-2-amino-6-borono-3-(piperidin-1-ylmethyl)hexanoic acid] were 16300 nM and 7060 nM.
The corresponding values for `CC(=O)NC[C@@H](CCCB(O)O)[C@H](N)C(=O)O` [Example 11, (2S,3R)-3-(acetamidomethyl)-2-amino-6-boronohexanoic acid] are 5890 nM and 5080 nM.
`CC[C@H](N)C(=O)NC[C@@H](CCCB(O)O)[C@H](N)C(=O)O` [Example 9, (2S,3R)-2-amino-3-(((S)-2-aminobutanamido)methyl)-6-boronohexanoic acid]: the IC50 on Human Arginase 2 stood at 410 nM; at Human Arginase 1, 180 nM.
The corresponding values for `NC(=O)NC[C@@H](CCCB(O)O)[C@H](N)C(=O)O` [Example 7, (2S,3R)-2-amino-6-borono-3-(ureidomethyl)hexanoic acid] are 5580 nM and 2730 nM.
Taken in the same sequence, the figures for `NC(=O)[C@@H](CCCB(O)O)[C@H](N)C(=O)O` [Example 16, (2S,3S)-2-amino-6-borono-3-carbamoylhexanoic acid] were 54400 nM and 19200 nM.
The corresponding values for `CNC[C@@H](CCCB(O)O)[C@H](N)C(=O)O` [Example 4, (2S,3R)-2-amino-6-borono-3-((methylamino)methyl)hexanoic acid] are 770 nM and 870 nM.
